Experimental data as given in PubChem BioAssay AID330 (DTP/NCI, 2004).
Several values for one entry are separate records, joined by “and”; a condition that tells them apart may be missing. Equal entries are not always repeated. Inconclusive results and toxic doses are left out. How the source made its calls: active means survival T/C of 150% or more; inactive means T/C below 125% in these data.

Test system: P388 leukemia ip, CD2F1 mice, survival T/C
Test: NCI In Vivo Anticancer Drug Screen. Data for tumor model P388 Leukemia (intraperitoneal) in CD2F1 (CDF1) mice
Details: endpoint: median survival time, higher = longer survival
Method in brief: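 Mice carrying the transplanted tumor received test compound or vehicle. Survival was recorded in each group, and the value is the treated-group measurement divided by that of the vehicle-treated control group.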

[1] = dose: 50.0 mg/kg/injection, schedule: Q01DX005 (ip), vehicle: Klucel (hydroxypropylcellulose) (HPC)
[2] = dose: 100.0 mg/kg/injection, schedule: Q01DX005 (ip), vehicle: Klucel (hydroxypropylcellulose) (HPC)
[3] = dose: 200.0 mg/kg/injection, schedule: Q01DX005 (ip), vehicle: Klucel (hydroxypropylcellulose) (HPC)
[4] = dose: 50.0 mg/kg/injection, schedule: Q01DX005 (ip), vehicle: saline with Tween-80
[5] = dose: 100.0 mg/kg/injection, schedule: Q01DX005 (ip), vehicle: saline with Tween-80
[6] = dose: 200.0 mg/kg/injection, schedule: Q01DX005 (ip), vehicle: saline with Tween-80
[7] = dose: 50.0 mg/kg/injection, schedule: Q01DX009 (ip), vehicle: Klucel (hydroxypropylcellulose) (HPC)
[8] = dose: 100.0 mg/kg/injection, schedule: Q01DX009 (ip), vehicle: Klucel (hydroxypropylcellulose) (HPC)
[9] = dose: 200.0 mg/kg/injection, schedule: Q01DX009 (ip), vehicle: Klucel (hydroxypropylcellulose) (HPC)
[10] = dose: 12.5 mg/kg/injection, schedule: Q04DX003 (ip), vehicle: saline
[11] = dose: 12.5 mg/kg/injection, schedule: Q01DX005 (ip), vehicle: saline with Tween-80
[12] = dose: 37.5 mg/kg/injection, schedule: Q01DX009 (ip), vehicle: saline with Tween-80
[13] = dose: 75.0 mg/kg/injection, schedule: Q01DX009 (ip), vehicle: saline with Tween-80
[14] = dose: 25.0 mg/kg/injection, schedule: Q01DX009 (ip), vehicle: saline
[15] = dose: 50.0 mg/kg/injection, schedule: Q01DX009 (ip), vehicle: saline with Tween-80
[16] = dose: 25.0 mg/kg/injection, schedule: Q01DX005 (ip), vehicle: Klucel (hydroxypropylcellulose) (HPC)

Measured: T/C

COc1ccc(Cc2nc(C)cc3cc(OC)c(OC)cc23)cc1OC
inactive: dose: 50.0 mg/kg/injection, schedule: Q01DX009 (ip), vehicle: water 111 % of control | dose: 100.0 mg/kg/injection, schedule: Q01DX009 (ip), vehicle: water 102 % of control | dose: 200.0 mg/kg/injection, schedule: Q01DX009 (ip), vehicle: water 89 % of control

Cc1ccc2nc3[nH]c(=O)[nH]c(=O)c3c(N)c2c1
inactive: [1] 101 % of control | [2] 104 % of control | [3] 102 % of control

CC(=O)OC1(C)CC1(C)C (centres undefined)
inactive: [4] 100 % of control | [5] 98 % of control | [6] 98 % of control

COC(=O)c1ccccc1NC(=O)Nc1ncccn1
inactive: [7] 100 % of control | [8] 100 % of control | [9] 96 % of control

COc1ccc(OC)c(C(=O)C[n+]2ccccc2)c1
inactive: [10] 95 % of control | dose: 25.0 mg/kg/injection, schedule: Q04DX003 (ip), vehicle: saline 90 % of control | dose: 50.0 mg/kg/injection, schedule: Q04DX003 (ip), vehicle: saline 100 % of control

O=C1OC[C@H]2[C@H](c3ccc(O)c(O)c3)c3cc(O)c(O)cc3C[C@H]12
inactive: [4] 95 % of control | [5] 95 % of control | [6] 92 % of control

Oc1c(-c2ccccc2)nc2ccccn12
inactive: dose: 60.0 mg/kg/injection, schedule: Q01DX005 (ip), vehicle: Klucel (hydroxypropylcellulose) (HPC) 94 % of control | dose: 120.0 mg/kg/injection, schedule: Q01DX005 (ip), vehicle: Klucel (hydroxypropylcellulose) (HPC) 96 % of control | dose: 240.0 mg/kg/injection, schedule: Q01DX005 (ip), vehicle: Klucel (hydroxypropylcellulose) (HPC) 107 % of control

OC(CCC(O)(C(F)(F)F)C(F)(F)F)(C(F)(F)F)C(F)(F)F
inactive: dose: 6.25 mg/kg/injection, schedule: Q01DX005 (ip), vehicle: saline 99 % of control | dose: 12.5 mg/kg/injection, schedule: Q01DX005 (ip), vehicle: saline 101 % of control | dose: 25.0 mg/kg/injection, schedule: Q01DX005 (ip), vehicle: saline 100 % of control | [4] 103 % of control

CCCCOC(=O)[C@@H]1O[C@H]2OC=C[C@H]21
inactive: dose: 6.25 mg/kg/injection, schedule: Q01DX005 (ip), vehicle: saline with Tween-80 100 % of control | [11] 106 % of control

COc1ccc(NC(=S)NN)cc1
inactive: [12] 95 % of control | [13] 90 % of control | dose: 100.0 mg/kg/injection, schedule: Q04DX003 (ip), vehicle: saline with Tween-80 87 % of control

C(=Nc1ccc2ccccc2c1)Nc1ccc2ccccc2c1.[Cu+2]
inactive: [14] 115 % of control | [15] 117 % of control

O=c1c2c(-c3cc(-c4ccccc4)nc4[nH]n(-c5ccccc5)c(=O)c34)cc(-c3ccccc3)nc2[nH]n1-c1ccccc1
inactive: [1] 96 % of control | [2] 107 % of control | [3] 96 % of control

CCN(CC)CCn1ncc(Sc2cc([N+](=O)[O-])ccc2N)c(Cl)c1=O
inactive: dose: 60.0 mg/kg/injection, schedule: Q01DX005 (ip), vehicle: saline with Tween-80 100 % of control | dose: 120.0 mg/kg/injection, schedule: Q01DX005 (ip), vehicle: saline with Tween-80 89 % of control

CCOC(=O)/C=C(\NC1CC(OC2C[C@](O)(C(C)=O)Cc3c(O)c4c(c(O)c32)C(=O)c2c(OC)cccc2C4=O)OC(C)C1O)C(=O)OCC (some centres undefined)
inactive: dose: 6.25 mg/kg/injection, schedule: Q04DX003 (ip), vehicle: saline with Tween-80 106 % of control | dose: 12.5 mg/kg/injection, schedule: Q04DX003 (ip), vehicle: saline with Tween-80 113 % of control | dose: 25.0 mg/kg/injection, schedule: Q04DX003 (ip), vehicle: saline with Tween-80 105 % of control | dose: 50.0 mg/kg/injection, schedule: Q04DX003 (ip), vehicle: saline with Tween-80 124 % of control

Cn1cnc([N+](=O)[O-])c1SCC(=O)O
inactive: [7] 108 % of control | [8] 122 % of control | [9] 96 % of control | dose: 400.0 mg/kg/injection, schedule: Q01DX009 (ip), vehicle: Klucel (hydroxypropylcellulose) (HPC) 103 % of control

O=S(=O)(c1ccccc1)C(SC(=S)Sc1ccccc1)Sc1ccccc1 (centres undefined)
inactive: dose: 12.5 mg/kg/injection, schedule: Q01DX009 (ip), vehicle: saline 104 % of control | [14] 107 % of control | [15] 114 % of control | dose: 50.0 mg/kg/injection, schedule: Q01DX009 (ip), vehicle: saline 96 % of control

Cc1cc(O)c(C(=O)O)c2c1CCC(C1(C)CO1)C2 (centres undefined)
inactive: dose: 1.56 mg/kg/injection, schedule: Q01DX005 (ip), vehicle: Klucel (hydroxypropylcellulose) (HPC) 100 % of control | dose: 3.12 mg/kg/injection, schedule: Q01DX005 (ip), vehicle: Klucel (hydroxypropylcellulose) (HPC) 101 % of control | dose: 6.25 mg/kg/injection, schedule: Q01DX005 (ip), vehicle: Klucel (hydroxypropylcellulose) (HPC) 100 % of control | dose: 12.5 mg/kg/injection, schedule: Q01DX005 (ip), vehicle: Klucel (hydroxypropylcellulose) (HPC) 105 % of control | [16] 107 % of control

Cc1ccc(NC(=O)N2c3ccccc3SC2c2ccco2)c(C)c1 (centres undefined)
inactive: dose: 12.5 mg/kg/injection, schedule: Q01DX009 (ip), vehicle: saline with Tween-80 92 % of control | dose: 25.0 mg/kg/injection, schedule: Q01DX009 (ip), vehicle: saline with Tween-80 103 % of control | [15] 86 % of control and 92 % of control

CC(=O)C1C(=O)C(=O)N(c2ccccc2[N+](=O)[O-])C1=O (centres undefined)
inactive: [11] 101 % of control | dose: 25.0 mg/kg/injection, schedule: Q01DX005 (ip), vehicle: saline with Tween-80 107 % of control | [4] 100 % of control and 113 % of control

[N-]=[N+]=Nc1ccc(C(=O)ON2C(=O)CCC2=O)cc1
inactive: [4] 97 % of control | [5] 105 % of control | [6] 119 % of control

Cc1c2c(ccc3ccccc32)c[n+]2ccccc12
inactive: dose: 6.25 mg/kg/injection, schedule: Q04DX003 (ip), vehicle: other 105 % of control | dose: 6.25 mg/kg/injection, schedule: Q04DX003 (ip), vehicle: saline 109 % of control | dose: 12.5 mg/kg/injection, schedule: Q04DX003 (ip), vehicle: other 105 % of control | [10] 109 % of control

COC(=O)OCC#Cc1ccccc1
inactive: dose: 50.0 mg/kg/injection, schedule: Q04DX002 (ip), vehicle: saline with Tween-80 100 % of control | dose: 100.0 mg/kg/injection, schedule: Q04DX002 (ip), vehicle: saline with Tween-80 108 % of control | dose: 200.0 mg/kg/injection, schedule: Q04DX002 (ip), vehicle: saline with Tween-80 112 % of control

CC1CCC2(OC2(C)C)C(=O)C1 (centres undefined)
inactive: dose: 100.0 mg/kg/injection, schedule: Q04DX002 (ip), vehicle: saline 103 % of control | dose: 200.0 mg/kg/injection, schedule: Q04DX002 (ip), vehicle: saline 103 % of control | dose: 400.0 mg/kg/injection, schedule: Q04DX002 (ip), vehicle: saline 104 % of control

N#CC(=O)Nc1ccc(Cl)cc1
inactive: dose: 3.75 mg/kg/injection, schedule: Q01DX005 (ip), vehicle: saline with Tween-80 103 % of control | dose: 7.5 mg/kg/injection, schedule: Q01DX005 (ip), vehicle: saline with Tween-80 111 % of control | dose: 15.0 mg/kg/injection, schedule: Q01DX005 (ip), vehicle: saline with Tween-80 109 % of control

CC1CCC=CC(=O)C1 (centres undefined)
inactive: dose: 100.0 mg/kg/injection, schedule: Q04DX003 (ip), vehicle: Klucel (hydroxypropylcellulose) (HPC) 102 % of control | dose: 200.0 mg/kg/injection, schedule: Q04DX003 (ip), vehicle: Klucel (hydroxypropylcellulose) (HPC) 108 % of control

CC1COCCOCCOCC(C)OC(=O)COCC(=O)O1 (centres undefined)
inactive: [7] 99 % of control | [8] 101 % of control | [9] 105 % of control

CCCC/C=C(\C#N)SCC
inactive: [12] 100 % of control and 112 % of control and 118 % of control | [13] 105 % of control and 114 % of control and 119 % of control | dose: 150.0 mg/kg/injection, schedule: Q01DX009 (ip), vehicle: saline with Tween-80 106 % of control and 123 % of control | dose: 300.0 mg/kg/injection, schedule: Q01DX009 (ip), vehicle: saline with Tween-80 104 % of control

Cn1cc(C2NC(=O)c3ccccc3N2)c2ccccc21 (centres undefined)
inactive: [16] 102 % of control | [1] 106 % of control | dose: 88.0 mg/kg/injection, schedule: Q01DX005 (ip), vehicle: Klucel (hydroxypropylcellulose) (HPC) 113 % of control | [2] 115 % of control
